In PubChem BioAssay (NCI):
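Values below derive from 48-hour exposures of cells grown in 96-well plates, with endpoints linearly interpolated between the two concentrations bracketing the appropriate inhibition level. At the GI50, growth is halved. TGI: total growth inhibition.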

What was measured:
Assay in all cases: NCI-60 cell line screen, 48 h
SW-620 colon = system: SW-620 colon
OVCAR-5 ovarian = system: OVCAR-5 ovarian
HCC-2998 colon = system: HCC-2998 colon
A549 NSCLC = system: A549 NSCLC
SK-MEL-2 melanoma = system: SK-MEL-2 melanoma
SNB-19 CNS = system: SNB-19 CNS
M14 melanoma = system: M14 melanoma
UACC-257 melanoma = system: UACC-257 melanoma
UACC-62 melanoma = system: UACC-62 melanoma
HCT-116 colon = system: HCT-116 colon
HT29 colon = system: HT29 colon
NCI/ADR-RES ovarian = system: NCI/ADR-RES ovarian
SF-295 CNS = system: SF-295 CNS
BT-549 breast = system: BT-549 breast
SF-268 CNS = system: SF-268 CNS
786-0 renal = system: 786-0 renal
HOP-62 NSCLC = system: HOP-62 NSCLC
NCI-H460 lung = system: NCI-H460 lung
MALME-3M melanoma = system: MALME-3M melanoma
ACHN renal = system: ACHN renal
RPMI-8226 leukemia = system: RPMI-8226 leukemia
OVCAR-4 ovarian = system: OVCAR-4 ovarian
PC-3 prostate = system: PC-3 prostate
SNB-75 CNS = system: SNB-75 CNS
LOX IMVI melanoma = system: LOX IMVI melanoma
HS 578T breast = system: HS 578T breast
RXF 393 renal = system: RXF 393 renal
KM12 colon = system: KM12 colon
COLO 205 colon = system: COLO 205 colon
IGROV1 ovarian = system: IGROV1 ovarian
HCT-15 colon = system: HCT-15 colon
EKVX NSCLC = system: EKVX NSCLC
HOP-92 NSCLC = system: HOP-92 NSCLC
K-562 leukemia = system: K-562 leukemia
UO-31 renal = system: UO-31 renal
OVCAR-3 ovarian = system: OVCAR-3 ovarian
SK-MEL-28 melanoma = system: SK-MEL-28 melanoma
CAKI-1 renal = system: CAKI-1 renal
NCI-H23 lung = system: NCI-H23 lung
SK-MEL-5 melanoma = system: SK-MEL-5 melanoma
MCF7 breast = system: MCF7 breast
MDA-MB-231 breast = system: MDA-MB-231 breast
OVCAR-8 ovarian = system: OVCAR-8 ovarian
SF-539 CNS = system: SF-539 CNS
SK-OV-3 ovarian = system: SK-OV-3 ovarian
TK-10 renal = system: TK-10 renal
NCI-H522 lung = system: NCI-H522 lung
HL-60(TB) leukemia = system: HL-60(TB) leukemia
T-47D breast = system: T-47D breast
A498 renal = system: A498 renal
U251 CNS = system: U251 CNS
MDA-MB-435 = system: MDA-MB-435
MOLT-4 leukemia = system: MOLT-4 leukemia
SR leukemia = system: SR leukemia
SN12C renal = system: SN12C renal
NCI-H226 lung = system: NCI-H226 lung
CCRF-CEM leukemia = system: CCRF-CEM leukemia
DU-145 prostate = system: DU-145 prostate

CCC1(O)C(=O)OCc2c1cc1n(c2=O)Cc2cc3ccccc3nc2-1 (stereo not drawn)
TGI (SW-620 colon): > 41.2 µM
TGI (OVCAR-5 ovarian): 1.25 µM
TGI (HCC-2998 colon): 11.2 µM
TGI (A549 NSCLC): 0.334 µM
TGI (SK-MEL-2 melanoma): 3.52 µM
TGI (SNB-19 CNS): 0.0667 µM
TGI (M14 melanoma): 0.0271 µM
TGI (UACC-257 melanoma): 3.57 µM
TGI (UACC-62 melanoma): 0.0379 µM
TGI (HCT-116 colon): 0.614 µM
TGI (HT29 colon): 0.394 µM
TGI (NCI/ADR-RES ovarian): 2.15 µM
TGI (SF-295 CNS): 0.226 µM
TGI (BT-549 breast): > 41.4 µM
TGI (SF-268 CNS): 15.2 µM
TGI (786-0 renal): 0.203 µM
TGI (HOP-62 NSCLC): 0.319 µM
TGI (NCI-H460 lung): 10.7 µM
TGI (MALME-3M melanoma): 11.8 µM
TGI (ACHN renal): 0.519 µM
TGI (RPMI-8226 leukemia): 1.89 µM
TGI (OVCAR-4 ovarian): > 100 µM
TGI (PC-3 prostate): 23.9 µM
TGI (SNB-75 CNS): 0.19 µM
TGI (LOX IMVI melanoma): 1.33 µM
TGI (HS 578T breast): > 100 µM
TGI (RXF 393 renal): 0.527 µM
TGI (KM12 colon): > 100 µM
TGI (COLO 205 colon): 3.55 µM
TGI (IGROV1 ovarian): 5.96 µM
TGI (HCT-15 colon): 17.1 µM
TGI (EKVX NSCLC): 0.488 µM
TGI (HOP-92 NSCLC): 23.9 µM
TGI (K-562 leukemia): > 100 µM
TGI (UO-31 renal): 0.156 µM
TGI (OVCAR-3 ovarian): 2.72 µM
TGI (SK-MEL-28 melanoma): 18.4 µM
TGI (CAKI-1 renal): > 31.9 µM
TGI (NCI-H23 lung): 0.0806 µM
TGI (SK-MEL-5 melanoma): 0.312 µM
TGI (MCF7 breast): 2.06 µM
TGI (MDA-MB-231 breast): 7.06 µM
TGI (OVCAR-8 ovarian): 15.7 µM
GI50 (SF-539 CNS): 0.0107 µM
TGI (SF-539 CNS): > 100 µM
TGI (SK-OV-3 ovarian): 7.11 µM
TGI (TK-10 renal): 50.5 µM
TGI (NCI-H522 lung): 3.89 µM
TGI (HL-60(TB) leukemia): 0.0659 µM
TGI (T-47D breast): > 33.6 µM
TGI (A498 renal): 4.15 µM
TGI (U251 CNS): 0.57 µM
TGI (MDA-MB-435): 8.35 µM

CC1=C2C(=C[C@@](C)(CO)[C@@H]2OC(=O)N(C)CCN(C)C(=O)OC(C)(C)C)C(=O)[C@](C)(O)C12CC2
GI50 (SW-620 colon): 12.8 µM
TGI (SW-620 colon): > 50 µM
GI50 (OVCAR-5 ovarian): 2.67 µM
TGI (OVCAR-5 ovarian): > 50 µM
GI50 (HCC-2998 colon): 8.3 µM
TGI (HCC-2998 colon): 26.2 µM
GI50 (A549 NSCLC): 5.88 µM
TGI (A549 NSCLC): > 50 µM
GI50 (SK-MEL-2 melanoma): 7.63 µM
TGI (SK-MEL-2 melanoma): 17.3 µM
GI50 (MOLT-4 leukemia): 31.5 µM
TGI (MOLT-4 leukemia): > 50 µM
GI50 (SNB-19 CNS): 10.9 µM
TGI (SNB-19 CNS): > 50 µM
GI50 (M14 melanoma): 6.36 µM
TGI (M14 melanoma): 20.8 µM
GI50 (UACC-257 melanoma): 10.1 µM
TGI (UACC-257 melanoma): 26.3 µM
GI50 (UACC-62 melanoma): 8.33 µM
TGI (UACC-62 melanoma): 17.8 µM
GI50 (HCT-116 colon): 2.76 µM
TGI (HCT-116 colon): > 50 µM
GI50 (HT29 colon): 2.32 µM
TGI (HT29 colon): > 50 µM
GI50 (NCI/ADR-RES ovarian): 3.05 µM
TGI (NCI/ADR-RES ovarian): 23.7 µM
GI50 (SF-295 CNS): 1.8 µM
TGI (SF-295 CNS): 33.1 µM
GI50 (BT-549 breast): 6.61 µM
TGI (BT-549 breast): 20.6 µM
GI50 (SF-268 CNS): 1.78 µM
TGI (SF-268 CNS): 18.7 µM
GI50 (786-0 renal): 11.6 µM
TGI (786-0 renal): 37.8 µM
GI50 (NCI-H460 lung): 1.45 µM
TGI (NCI-H460 lung): 5.42 µM
GI50 (ACHN renal): 2.6 µM
TGI (ACHN renal): 32.6 µM
GI50 (RPMI-8226 leukemia): 5.83 µM
TGI (RPMI-8226 leukemia): 43.8 µM
GI50 (OVCAR-4 ovarian): 4.68 µM
TGI (OVCAR-4 ovarian): 22.6 µM
GI50 (SR leukemia): 2.39 µM
TGI (SR leukemia): > 50 µM
GI50 (PC-3 prostate): 7.19 µM
TGI (PC-3 prostate): 28.6 µM
GI50 (SNB-75 CNS): 5.29 µM
TGI (SNB-75 CNS): 11.8 µM
GI50 (LOX IMVI melanoma): 12.2 µM
TGI (LOX IMVI melanoma): > 50 µM
GI50 (HS 578T breast): 15.3 µM
TGI (HS 578T breast): > 50 µM
GI50 (RXF 393 renal): 1.22 µM
TGI (RXF 393 renal): 4.06 µM
GI50 (KM12 colon): 9.9 µM
TGI (KM12 colon): > 50 µM
GI50 (COLO 205 colon): 5.27 µM
TGI (COLO 205 colon): 14.3 µM
GI50 (IGROV1 ovarian): 1.97 µM
TGI (IGROV1 ovarian): 18.8 µM
GI50 (HCT-15 colon): 3.98 µM
TGI (HCT-15 colon): > 50 µM
GI50 (EKVX NSCLC): 10.7 µM
TGI (EKVX NSCLC): 29.1 µM
GI50 (HOP-92 NSCLC): 8.08 µM
TGI (HOP-92 NSCLC): 25.1 µM
GI50 (K-562 leukemia): 21.4 µM
TGI (K-562 leukemia): > 50 µM
GI50 (UO-31 renal): 2.17 µM
TGI (UO-31 renal): 14.9 µM
GI50 (OVCAR-3 ovarian): 2.31 µM
TGI (OVCAR-3 ovarian): 21 µM
GI50 (SK-MEL-28 melanoma): 9.83 µM
TGI (SK-MEL-28 melanoma): 26.5 µM
GI50 (NCI-H23 lung): 2.08 µM
TGI (NCI-H23 lung): 15.9 µM
GI50 (SK-MEL-5 melanoma): 8.84 µM
TGI (SK-MEL-5 melanoma): 16.4 µM
GI50 (MCF7 breast): 3.35 µM
TGI (MCF7 breast): > 50 µM
GI50 (SN12C renal): 11.1 µM
TGI (SN12C renal): > 50 µM
GI50 (MDA-MB-231 breast): 9.64 µM
TGI (MDA-MB-231 breast): 39.3 µM
GI50 (OVCAR-8 ovarian): 6.51 µM
TGI (OVCAR-8 ovarian): 45.7 µM
GI50 (SF-539 CNS): 7.92 µM
TGI (SF-539 CNS): 21.2 µM
GI50 (NCI-H226 lung): 11.7 µM
TGI (NCI-H226 lung): 34.7 µM
GI50 (SK-OV-3 ovarian): 6.93 µM
TGI (SK-OV-3 ovarian): 23 µM
GI50 (CCRF-CEM leukemia): 18.8 µM
TGI (CCRF-CEM leukemia): > 50 µM
GI50 (DU-145 prostate): 1.78 µM
TGI (DU-145 prostate): 32.4 µM
GI50 (TK-10 renal): 13.6 µM
TGI (TK-10 renal): 35.2 µM
GI50 (NCI-H522 lung): 6.27 µM
TGI (NCI-H522 lung): 25.2 µM
GI50 (HL-60(TB) leukemia): 2.3 µM
TGI (HL-60(TB) leukemia): 46.4 µM
GI50 (T-47D breast): 5.05 µM
TGI (T-47D breast): 35.2 µM
GI50 (A498 renal): 8.8 µM
TGI (A498 renal): 20.1 µM
GI50 (U251 CNS): 5.25 µM
TGI (U251 CNS): 46.1 µM
GI50 (MDA-MB-435): 9.74 µM
TGI (MDA-MB-435): 23.1 µM
